Reference: patent US20110158944A1, “BRAF BIOMARKERS” (priority 2007, published 2011)
Where two headings read alike, the source gives them in different places.

Key:
WM-115 = assay: Cell proliferation IC50 (Cell Titer Glo); assay type: cell-based, human; conditions: 4 days continuous exposure
Protocol: (§1) IC50 Cell proliferation measurements. Cell proliferation was assessed in the 41 tumor cell lines set forth in Table 2 after 4 days of continuous exposure to either the ERK1/2 inhibitor, compound a or the MEK inhibitor compound b (PD0325901) using Promega Cell Titer Glo reagent (Promega Corp, Madison, Wis.). Promega's CellTiter-Glo™ Luminescent Cell Viability Assay is a sensitive method for assaying cell proliferation using a stable form of luciferase to measure ATP as an indicator of viable cells. This reagent allows a homogeneous method of determining cell number by quantitation of ATP. The luciferase luminescent signal produced is proportional to the number of viable cells present in culture.
(§2) A 1000× compound dose response curve, containing 8 dilutions of each compound, was prepared on a 96-well plate. Compounds were diluted in 100% DMSO to the following (1000×) concentrations: compound b: 1000 μM, 333 μM, 111 μM, 37 μM, 12 μM, 4.1 μM, 1.4 μM and 0.5 μM; compound a: 3000 μM, 1000 μM, 333 μM, 111 μM, 37 μM, 12 μM, 4.1 μM and 1.4 μM. This compound source plate was sealed and kept frozen between uses.
(§3) Cells were grown in RPMI 1640 medium supplemented with 10% Fetal Bovine Serum, 2 mM Glutamine and non-essential amino acids or DMEM/F12 Media containing the same supplements. On day zero, cells were trypsinized, counted and plated into wells of a 96-well Wallac TC Isoplate (Perkin-Elmer Wallac, Gaithersburg, Md.) at a density of 1500-2000 cells per well in 50 μl of complete media. An additional 6-8 replicate well of the cells at the same density were plated on a separate Wallac TC Isoplate. This plate was developed on day 1 to determine the cell-growth baseline.
(§4) On day 1 of treatment, compound was diluted to 2× in media and immediately added to the cells as follows: one ml of media was added to each well of a deep-well 96-well plate and 2 μl of 1000× compound was added with mixing to make 2× compound in media. 50 μl of the media containing 2× compound was added to the cell plates in duplicate points so the final concentrations for each well were as outlined in Table 1. The plates were then returned to a 37° C. incubator and left undisturbed for 4 days. The day 1 (baseline) plates were developed by first adding 50 μl media (without compound) to bring the volume in each well to 100 μl, then adding 100 μl of Cell Titer Glo reagent (as below).
(§5) After four days of treatment, the plates were developed with Cell Titer Glo (CTG) reagent (Promega Corp.; Madison, Wis.). Reagent was reconstituted as described in the product insert. 100 μl of reagent was added to all treatment and control wells and the plates were gently shaken for 5 minutes then incubated an additional 5 minutes before reading in an Analyst AD (Molecular Devices Corporation; Sunnyvale, Calif.) using the Luminescence settings.
(§6) Data was analyzed in Excel using XLfit 4.2, fit model #205 (Dose Response One Site)

[1] = test system: Cell lines with either the heterozygote V600E BRAF mutation or wild type BRAF genotype; assay: Cell proliferation IC50 (Cell Titer Glo), summary by genotype; assay type: cell-based; conditions: Homo sapiens, read-out: IC50 cell proliferation
Protocol: as §1, §2, §3
as §4, with “The day 1 (baseline) plates were developed by first adding 50 μl media (without compound) to bring the volume in each well to 100 μl, then adding 100 μl of Cell Titer Glo reagent (as below).” left out
as §5, with “Reagent was reconstituted as described in the product insert.” left out
as §6

[2] = test system: V600E BRAF homozygous genotype cell lines; assay: as above; assay type: cell-based; conditions: Homo sapiens, read-out: IC50 cell proliferation
Protocol: as §1, §2, §3
as §4, with “The day 1 (baseline) plates were developed by first adding 50 μl media (without compound) to bring the volume in each well to 100 μl, then adding 100 μl of Cell Titer Glo reagent (as below).” left out
as §5, with “Reagent was reconstituted as described in the product insert.” left out
as §6

ES-2 = assay: Cell proliferation IC50 (Cell Titer Glo); assay type: cell-based; conditions: Homo sapiens, read-out: IC50 cell proliferation
Protocol: as §1, §2, §3, §4, §5, §6

A375 = assay: Cell proliferation IC50 (Cell Titer Glo); assay type: cell-based; conditions: Homo sapiens, A-375, 96 h, read-out: IC50 cell proliferation
Protocol: as §1, §2, §3, §4, §5, §6

KG-1 = assay: Cell proliferation IC50 (Cell Titer Glo); assay type: cell-based; conditions: Homo sapiens, read-out: IC50 cell proliferation
Protocol: as §1, §2, §3, §4, §5, §6

TT = assay: Cell proliferation IC50 (Cell Titer Glo); assay type: cell-based; conditions: Homo sapiens, 96 h, Thyroid, BRAF V600V Wild type, 4 days continuous exposure
Protocol: as §1, §2, §3, §4, §5, §6

M14 = assay: Cell proliferation IC50 (Cell Titer Glo); assay type: cell-based; conditions: Homo sapiens, read-out: IC50 cell proliferation
Protocol: as §1, §2, §3, §4, §5, §6

RPMI-7951 = assay: Cell proliferation IC50 (Cell Titer Glo); assay type: cell-based; conditions: Homo sapiens, read-out: IC50 cell proliferation
Protocol: as §1, §2, §3, §4, §5, §6

SK-Mel-28 = assay: Cell proliferation IC50 (Cell Titer Glo); assay type: cell-based; conditions: Homo sapiens, read-out: IC50 cell proliferation
Protocol: as §1, §2, §3, §4, §5, §6

Hs695T = assay: Cell proliferation IC50 (Cell Titer Glo); assay type: cell-based; conditions: Homo sapiens, Hs 695T, 96 h, read-out: IC50 cell proliferation
Protocol: as §1, §2, §3, §4, §5, §6

8505C = assay: Cell proliferation IC50 (Cell Titer Glo); assay type: cell-based; conditions: Homo sapiens, 96 h, read-out: IC50 cell proliferation
Protocol: as §1, §2, §3, §4, §5, §6

WiDr = assay: Cell proliferation IC50 (Cell Titer Glo); assay type: cell-based; conditions: Homo sapiens, 96 h, read-out: IC50 cell proliferation
Protocol: as §1, §2, §3, §4, §5, §6

H292 = assay: Cell proliferation IC50 (Cell Titer Glo); assay type: cell-based; conditions: Homo sapiens, NCI-H292, 96 h, read-out: IC50 cell proliferation
Protocol: as §1, §2, §3, §4, §5, §6

A2058 = assay: Cell proliferation IC50 (Cell Titer Glo); assay type: cell-based; conditions: Homo sapiens, read-out: IC50 cell proliferation
Protocol: as §1, §2, §3, §4, §5, §6

Caki-1 = assay: Cell proliferation IC50 (Cell Titer Glo); assay type: cell-based; conditions: Homo sapiens, read-out: IC50 cell proliferation
Protocol: as §1, §2, §3, §4, §5, §6

For O=C(NOC[C@H](O)CO)c1ccc(F)c(F)c1Nc1ccc(I)cc1F [cpd. b, PD0325901], the IC50 (WM-115; Homo sapiens, WM-115, 96 h, read-out: IC50 cell proliferation, WM-115, Melanoma, BRAF V600D Heterozygous) was less than 10 nM, the IC50 (WM-115; read-out: IC50 cell proliferation, WM-115, Melanoma, BRAF V600D Heterozygous) was 10 nM and the IC50 [1] was greater than 10 nM. The IC50 [2] was no more than 10 nM, the IC50 (ES-2; ES-2, 96 h) was 1000 nM and the IC50 (A375) was 5 nM. For the same molecule, the IC50 (KG-1; KG-1, 96 h) was 40 nM, the IC50 (TT) was 255 nM and the IC50 (M14; M14, 96 h) was 3 nM. For the same molecule, the IC50 (RPMI-7951; RPMI-7951, 96 h) was 69 nM, the IC50 (SK-Mel-28; SK-MEL-28, 96 h) was 10 nM and the IC50 (Hs695T) was 29 nM. It also gave an IC50 (8505C) of 10 nM, an IC50 (WiDr) of 6 nM and an IC50 (H292) of 5 nM. It also gave an IC50 (A2058; A2058, 96 h) of 10 nM and an IC50 (Caki-1; CAKI-1, 96 h) of 180 nM.
With O=C(Nc1ccc2[nH]nc(-c3ccncc3)c2c1)C1CCN(CC(=O)N2CCN(c3ccc(-c4ncccn4)cc3)CC2)C1 (stereo not shown) [cpd. a] the IC50 (WM-115; Homo sapiens, WM-115, 96 h, WM-115, Melanoma, BRAF V600D Heterozygous, read-out: IC50 cell proliferation) was less than 100 nM, the IC50 (WM-115; WM-115, Melanoma, BRAF V600D Heterozygous, read-out: IC50 cell proliferation) was 60 nM and the IC50 ([1]; 25 of the 32 cell lines tested (heterozygote V600E or wild type BRAF)) was greater than 100 nM. It also gave an IC50 ([2]; nine of the nine V600E BRAF homozygous genotype cell lines tested) of less than 100 nM, an IC50 (ES-2; 96 h, ES-2, Ovarian, BRAF V600E Heterozygous, 4 days continuous exposure) of 2660 nM and an IC50 (A375; A375, Melanoma, BRAF V600E Homozygous, 4 days continuous exposure) of 75 nM. The IC50 (KG-1; 96 h, KG-1, Leukemia, BRAF V600V Wild type, 4 days continuous exposure) was 900 nM, the IC50 (TT) was 406 nM and the IC50 (M14; 96 h, M14, Melanoma, BRAF V600E Homozygous, 4 days continuous exposure) was 40 nM. It also gave an IC50 (RPMI-7951; 96 h, RPMI-7951, Melanoma, BRAF V600E Heterozygous, 4 days continuous exposure) of 344 nM, an IC50 (SK-Mel-28; 96 h, SK-Mel-28, Melanoma, BRAF V600E Homozygous, 4 days continuous exposure) of 85 nM and an IC50 (Hs695T; Hs695T, Melanoma, BRAF V600E Heterozygous, 4 days continuous exposure) of 165 nM. The IC50 (8505C; Thyroid, BRAF V600E Homozygous, 4 days continuous exposure) was 50 nM, the IC50 (WiDr; Colon, BRAF V600E Heterozygous, 4 days continuous exposure) was 39 nM and the IC50 (H292; H292, Lung, BRAF V600V Wild type, 4 days continuous exposure) was 90 nM. For the same molecule, the IC50 (A2058; 96 h, A2058, Melanoma, BRAF V600E Heterozygous, 4 days continuous exposure) was 120 nM and the IC50 (Caki-1; 96 h, Caki-1, Renal, BRAF V600V Wild type, 4 days continuous exposure) was 450 nM.
